In brackets after ≈: the same amount, converted by molar mass. Activity calls are given as the source filed them. No cut-off for these calls is given here. Peptide text beside a SMILES is read from it.
How the values were obtained:
Staphylococcus aureus [1] = assay: Induction of cell membrane damage in Staphylococcus aureus ATCC 25923 at 5 times MIC incubated for 60 mins by SEM analysis; type: functional, organism-based
Staphylococcus aureus [2] = assay: Induction of cell membrane damage in Staphylococcus aureus ATCC 25923 assessed as membrane distortion at 5 times MIC incubated for 60 mins by SEM analysis; type: functional, organism-based
Staphylococcus aureus [3] = assay: Induction of cell membrane damage in Staphylococcus aureus ATCC 25923 assessed as bacterial content leakage at 5 times MIC incubated for 60 mins by SEM analysis; type: functional, organism-based
Escherichia coli [4] = assay: Induction of cell membrane damage in Escherichia coli ATCC 25922 assessed as wrinkling on bacterial surface at 5 times MIC incubated for 60 mins by SEM analysis; type: functional, organism-based
Pseudomonas aeruginosa = assay: Antibacterial activity against Pseudomonas aeruginosa ATCC BAA-427 incubated for 16 to 18 hrs by broth microdilution method; type: functional; conditions: time 16-18 hrs
Staphylococcus aureus [5] = assay: Antibacterial activity against Staphylococcus aureus ATCC 25923 incubated for 16 to 18 hrs by broth microdilution method; type: functional; conditions: time 16-18 hrs
Staphylococcus aureus [6] = assay: Induction of cell membrane damage in Staphylococcus aureus ATCC 25923 at 1 to 5 times MIC by SYTOX green fluorescence based analysis; type: functional, organism-based
Staphylococcus aureus [7] = assay: Antibacterial activity against methicillin-resistant Staphylococcus aureus ATCC BAA-44 incubated for 16 to 18 hrs by broth microdilution method; type: functional; conditions: time 16-18 hrs
Escherichia coli [8] = assay: Bactericidal activity against Escherichia coli ATCC 25922 incubated for 16 hrs; type: functional
Escherichia coli [9] = assay: Induction of cell membrane damage in Escherichia coli ATCC 25922 at 1 to 5 times MIC by SYTOX green fluorescence based analysis; type: functional, organism-based
Acinetobacter baumannii = assay: Antibacterial activity against Acinetobacter baumanni ATCC 19606 incubated for 16 to 18 hrs by broth microdilution method; type: functional; conditions: time 16-18 hrs
Staphylococcus aureus [10] = assay: Induction of cell membrane damage in Staphylococcus aureus ATCC 25923 at 5 times MIC incubated for 60 mins by PI staining based FACS analysis; type: functional, organism-based
[11] = Cytotoxicity against mouse 3T3-L1 cells assessed as cell viability upto 60 uM incubated for 4 hrs by MTT assay relative to control; type: toxicity, cell-based; conditions: read-out: Activity
Escherichia coli [12] = assay: Antibacterial activity against Escherichia coli ATCC 25922 incubated for 16 to 18 hrs by broth microdilution method; type: functional; conditions: time 16-18 hrs
Escherichia coli [13] = assay: Induction of cell membrane damage in Escherichia coli ATCC 25922 at 5 times MIC incubated for 60 mins by PI staining based FACS analysis; type: functional, organism-based
Escherichia coli [14] = assay: Induction of cell membrane damage in Escherichia coli ATCC 25922 assessed as membrane blebbing at 5 times MIC incubated for 60 mins by SEM analysis; type: functional, organism-based
Staphylococcus aureus [15] = assay: Bactericidal activity against Staphylococcus aureus ATCC 25923 incubated for 16 hrs; type: functional
Staphylococcus aureus [16] = assay: Antibacterial activity against methicillin-resistant Staphylococcus aureus ATCC 33591 incubated for 16 to 18 hrs by broth microdilution method; type: functional; conditions: time 16-18 hrs
Staphylococcus aureus [17] = assay: Induction of cell membrane damage in Staphylococcus aureus ATCC 25923 assessed as membrane blebbing at 5 times MIC incubated for 60 mins by SEM analysis; type: functional, organism-based
[18] = Hemolytic activity against human RBCs upto 100 uM incubated for 45 mins by absorbance based assay; type: toxicity, cell-based, Erythrocyte; conditions: red blood cells (erythrocytes), read-out: Activity
Staphylococcus aureus [19] = assay: Bactericidal activity against Staphylococcus aureus VRS1 at 4 times MIC incubated for 24 hrs by time kill assay relative to control; type: functional

Compound | MIC (Pseudomonas aeruginosa) | MIC (Staphylococcus aureus [5]) | Activity (Staphylococcus aureus [6]) | MIC (Staphylococcus aureus [7]) | MBC (Escherichia coli [8]) | Activity (Escherichia coli [9]) | MIC (Acinetobacter baumannii) | Activity (Staphylococcus aureus [10]) | viability at 4 h, up to 60 µM [11] | MIC (Escherichia coli [12]) | Activity (Escherichia coli [13]) | MBC (Staphylococcus aureus [15]) | MIC (Staphylococcus aureus [16]) | further results
CC[C@H](C)[C@H](NC(=O)[C@H](CCCNC(=N)N)NC(=O)CNC(=O)[C@H](CC(C)C)NC(=O)[C@H](Cc1ccccc1)NC(=O)[C@H](CCCCN)NC(=O)[C@H](CO)NC(=O)[C@H](Cc1ccccc1)NC(=O)[C@H](Cc1c[nH]c2ccccc12)NC(=O)[C@H](CCC(N)=O)NC(=O)[C@@H](NC(=O)[C@@H](N)Cc1ccccc1)C(C)C)C(=O)N[C@@H](CC(C)C)C(N)=O (H-FVQWFSKFLGRIL-NH2) | – | – | – | – | – | – | – | – | – | – | – | – | – | Activity (Staphylococcus aureus [1]): Active
COC(=O)[C@H](CCCc1cc2ccc3ccc4ccc5ccc1c1c5c4c3c21)NC(=O)[C@@H](N)CCCCN | 25 µM (≈ 12.7 µg/mL) | 12.5 µM (≈ 6.35 µg/mL) | Active | 12.5 µM (≈ 6.35 µg/mL) | 25 µM (≈ 12.7 µg/mL) | inactive | 25 µM (≈ 12.7 µg/mL) | Active | 41% | 25 µM (≈ 12.7 µg/mL) | Active | 12.5 µM (≈ 6.35 µg/mL) | 12.5 µM (≈ 6.35 µg/mL) | Activity (Staphylococcus aureus [2]): Active; Activity (Staphylococcus aureus [3]): Active; Activity (Escherichia coli [4]): Active; Activity (Escherichia coli [14]): Active; Activity (Staphylococcus aureus [17]): Active
COC(=O)[C@H](Cc1cc2ccc3ccc4ccc5ccc1c1c5c4c3c21)NC(=O)CNC(=O)[C@@H](N)CCCCN | 50 µM (≈ 26.8 µg/mL) | 12.5 µM (≈ 6.71 µg/mL) | Active | 12.5 µM (≈ 6.71 µg/mL) | 50 µM (≈ 26.8 µg/mL) | inactive | 100 µM (≈ 53.7 µg/mL) | Active | 47% | 50 µM (≈ 26.8 µg/mL) | Active | 50 µM (≈ 26.8 µg/mL) | 12.5 µM (≈ 6.71 µg/mL) | hemolysis at 0.75 h, up to 100 µM [18]: ~3%
CCCCCCCCCC(=O)N[C@@H](Cc1c[nH]c2ccccc12)C(=O)N[C@H](CC(N)=O)C(=O)N[C@@H](CC(=O)O)C(=O)N[C@@H]1C(=O)NCC(=O)N[C@@H](CCCN)C(=O)N[C@@H](CC(=O)O)C(=O)N[C@H](C)C(=O)N[C@@H](CC(=O)O)C(=O)NCC(=O)N[C@H](CO)C(=O)N[C@@H]([C@H](C)CC(=O)O)C(=O)N[C@@H](CC(=O)c2ccccc2N)C(=O)O[C@@H]1C | – | – | – | – | – | – | – | – | – | – | – | – | – | Activity (Staphylococcus aureus [19]): 100%
CN(C)[C@@H]1C(O)=C(C(N)=O)C(=O)[C@@]2(O)C(O)=C3C(=O)c4c(O)cccc4[C@@](C)(O)[C@H]3C[C@@H]12 [TETRACYCLINE] | 1.56 µM (≈ 0.693 µg/mL) | 0.39 µM (≈ 0.173 µg/mL) | – | 0.78 µM (≈ 0.347 µg/mL) | 0.78 µM (≈ 0.347 µg/mL) | – | 0.39 µM (≈ 0.173 µg/mL) | – | – | 0.78 µM (≈ 0.347 µg/mL) | – | 0.78 µM (≈ 0.347 µg/mL) | 0.78 µM (≈ 0.347 µg/mL) | –

— ChEMBL document CHEMBL5584357, “Corannulene Amino Acid-Derived Water-Soluble Amphiphilic Buckybowls as Broad-Spectrum Membrane Targeting Antibacterial Agents” (J Med Chem, 2024)
